Experiments:
Conditions in all cases: 72 h
U2OS [1] = experiment: cell viability relative to DMSO; higher = less toxic
Calu-3 [2] = experiment: as above
Caco-2 [3] = experiment: as above
Vero E6 [4] = experiment: as above
HepG2 [5] = experiment: as above
U2OS [6] = experiment: drug sensitivity score (DSS) for viability; higher = more toxic; extreme values may be limits of the assay
Calu-3 [7] = experiment: as above
Caco-2 [8] = experiment: as above
Vero E6 [9] = experiment: as above
HepG2 [10] = experiment: as above
U2OS [11] = experiment: relative viability EC50 (midpoint between 100% and the lowest measured viability); higher = less toxic
Calu-3 [12] = experiment: as above
Caco-2 [13] = experiment: as above
Vero E6 [14] = experiment: as above
HepG2 [15] = experiment: as above

Structure (SMILES)	cell viability (U2OS [1]; 1 nM) [%]	cell viability (U2OS [1]; 10 nM) [%]	cell viability (U2OS [1]; 100 nM) [%]	cell viability (U2OS [1]; 1000 nM) [%]	cell viability (U2OS [1]; 10000 nM) [%]	cell viability (Calu-3 [2]; 1 nM) [%]	cell viability (Calu-3 [2]; 10 nM) [%]	cell viability (Calu-3 [2]; 100 nM) [%]	cell viability (Calu-3 [2]; 1000 nM) [%]	cell viability (Calu-3 [2]; 10000 nM) [%]	cell viability (Caco-2 [3]; 1 nM) [%]	cell viability (Caco-2 [3]; 10 nM) [%]	cell viability (Caco-2 [3]; 100 nM) [%]	cell viability (Caco-2 [3]; 1000 nM) [%]	cell viability (Caco-2 [3]; 10000 nM) [%]	cell viability (Vero E6 [4]; 1 nM) [%]	cell viability (Vero E6 [4]; 10 nM) [%]	cell viability (Vero E6 [4]; 100 nM) [%]	cell viability (Vero E6 [4]; 1000 nM) [%]	cell viability (Vero E6 [4]; 10000 nM) [%]	cell viability (HepG2 [5]; 1 nM) [%]	cell viability (HepG2 [5]; 10 nM) [%]	cell viability (HepG2 [5]; 100 nM) [%]	cell viability (HepG2 [5]; 1000 nM) [%]	cell viability (HepG2 [5]; 10000 nM) [%]	drug sensitivity score (U2OS [6])	drug sensitivity score (Calu-3 [7])	drug sensitivity score (Caco-2 [8])	drug sensitivity score (Vero E6 [9])	drug sensitivity score (HepG2 [10])	relative viability EC50 (U2OS [11]) [µM]	relative viability EC50 (Calu-3 [12]) [µM]	relative viability EC50 (Caco-2 [13]) [µM]	relative viability EC50 (Vero E6 [14]) [µM]	relative viability EC50 (HepG2 [15]) [µM]
CO/N=C1/C[C@@H](C(=O)NC[C@@H](O)c2ccccc2)N(C(=O)c2ccc(-c3ccccc3C)cc2)C1 [OT-R-antagonist-1]	96.9	99.8	94.5	99.1	100	96.2	106	106	110	99.4	89	99	99.1	86.6	98.3	97	90.8	95.2	84.8	103	102	97.6	99.4	97.7	98.5	0	0	0	0	0	> 10	> 10	> 10	> 10	> 10
C[C@]12COC(=O)C[C@@H]1CC[C@@H]1[C@@H]2CC[C@@]2(C)[C@H]1CC[C@]2(C)O [Oxandrolone]	101	99.4	99.7	102	104	98.3	98.4	96.8	103	110	106	101	100	99.4	106	104	98	98.4	104	98.2	102	94.9	104	99.4	90.8	0	0	0	0	0	> 10	> 10	> 10	> 10	> 10
O=C(/C=C/N1C[C@H]2C[C@@H]1CN2c1ccccn1)c1ccccc1O [PFI-3]	92.6	99.7	96.1	99.7	101	101	115	98.1	96.1	107	92	94.5	88.5	98.1	106	99.3	90.4	99.6	93.8	104	97.3	99.8	110	99.5	96.2	0	0	0	0	0	> 10	> 10	> 10	> 10	> 10
Cc1ccc([N+](=O)[O-])cc1S(=O)(=O)N(C)/N=C/c1cnc2ccc(Br)cn12 [PIK-75]	98.6	96.6	53.8	4.2	0.8	102	103	52.6	35.6	46.7	98.8	90.3	57.9	28.4	33.3	105	101	69.7	0.7	5.3	97.9	84.7	26	11.1	10.6	23	17.4	18.3	22.3	26.8	0.109	0.0668	0.0669	0.139	0.0317
O=C1C(c2ccccn2)=[N+]([O-])c2ccccc21 [PIT]	97.6	100	99	95.3	101	95.2	106	94.7	93.9	102	104	95.1	92.7	92.1	109	102	102	97	97.6	97.5	99.8	103	96	91.8	97.9	0	0	0	0	0	> 10	> 10	> 10	> 10	> 10
CN(C)CC(=O)Nc1ccc2[nH]c(=O)c3ccccc3c2c1 [PJ-34]	92.2	102	94	94.6	95.6	95.5	100	96.2	104	98.5	91.5	101	99.3	97.2	104	96.7	93.2	101	100	102	97.5	99.3	97.8	103	98.6	0	0	0	0	0	> 10	> 10	> 10	> 10	> 10
CCC(C)SSc1ncc[nH]1 (stereo not given) [PX-12]	98	96.4	103	97.5	84.1	106	98	110	84	104	90.8	100	102	93.1	97.7	96.7	97.8	103	97.5	99.8	99.3	104	104	98.3	89.8	0.6	0	0	0	0	> 10	> 10	> 10	> 10	> 10

Source: the supplement of paper PMC13380429
